Patent US20240150377A1, “MODULATORS OF CYSTIC FIBROSIS TRANSMEMBRANE CONDUCTANCE REGULATOR” (VERTEX PHARMACEUTICALS INCORPORATED, priority 2020, published 2024)
Like-named read-outs stand apart in the source and are kept apart here. Each block holds one molecule with its values, some of them ahead of it.

Biological target: T1, CFTR (Homo sapiens, UniProt P13569, DEL508-508)
T1 construct: endogenous in cells; host or cells: primary human bronchial epithelial cells from CF subjects (F508del/MF-HBE), differentiated at air-liquid interface
Assay: HBE assay: Ussing chamber assay of CFTR-mediated short-circuit currents
Format: cell-based
Settings: for EC50: read-out: HBE EC50
Procedure, shortened: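 CFTR-mediated Isc (μA/cm²) equals the peak response to apical 20 μM forskolin minus the residual after a 20 μM each BPO/GlyH-101/CFTR inhibitor 172 cocktail, recorded in Ussing chambers at Vhold 0 mV, 37 °C, pH 7.4, with 30 μM apical amiloride. Cells were F508del/MF HBE cultures preincubated 18-24 h with corrector (concentration range or 10 μM) plus 1 μM ivacaftor in 20% human serum.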

[1] = Table 11, read-out: HBE Max Activity (%)
[2] = HBE assay, read-out: HBE Max activity (%)
[3] = Table 13, at 10 μM, read-out: HBE Activity at 10 μM (%)
[4] = Table 11, at 10 μM, read-out: HBE Activity at 10 μM (%)
[5] = Table 12, read-out: HBE Max Activity (%)
[6] = Table 13, read-out: HBE Max Activity (%)
[7] = Table 10, read-out: HBE Max activity (%)

T1 sequence (P13569 with tags, fused parts or gaps DEL508-508): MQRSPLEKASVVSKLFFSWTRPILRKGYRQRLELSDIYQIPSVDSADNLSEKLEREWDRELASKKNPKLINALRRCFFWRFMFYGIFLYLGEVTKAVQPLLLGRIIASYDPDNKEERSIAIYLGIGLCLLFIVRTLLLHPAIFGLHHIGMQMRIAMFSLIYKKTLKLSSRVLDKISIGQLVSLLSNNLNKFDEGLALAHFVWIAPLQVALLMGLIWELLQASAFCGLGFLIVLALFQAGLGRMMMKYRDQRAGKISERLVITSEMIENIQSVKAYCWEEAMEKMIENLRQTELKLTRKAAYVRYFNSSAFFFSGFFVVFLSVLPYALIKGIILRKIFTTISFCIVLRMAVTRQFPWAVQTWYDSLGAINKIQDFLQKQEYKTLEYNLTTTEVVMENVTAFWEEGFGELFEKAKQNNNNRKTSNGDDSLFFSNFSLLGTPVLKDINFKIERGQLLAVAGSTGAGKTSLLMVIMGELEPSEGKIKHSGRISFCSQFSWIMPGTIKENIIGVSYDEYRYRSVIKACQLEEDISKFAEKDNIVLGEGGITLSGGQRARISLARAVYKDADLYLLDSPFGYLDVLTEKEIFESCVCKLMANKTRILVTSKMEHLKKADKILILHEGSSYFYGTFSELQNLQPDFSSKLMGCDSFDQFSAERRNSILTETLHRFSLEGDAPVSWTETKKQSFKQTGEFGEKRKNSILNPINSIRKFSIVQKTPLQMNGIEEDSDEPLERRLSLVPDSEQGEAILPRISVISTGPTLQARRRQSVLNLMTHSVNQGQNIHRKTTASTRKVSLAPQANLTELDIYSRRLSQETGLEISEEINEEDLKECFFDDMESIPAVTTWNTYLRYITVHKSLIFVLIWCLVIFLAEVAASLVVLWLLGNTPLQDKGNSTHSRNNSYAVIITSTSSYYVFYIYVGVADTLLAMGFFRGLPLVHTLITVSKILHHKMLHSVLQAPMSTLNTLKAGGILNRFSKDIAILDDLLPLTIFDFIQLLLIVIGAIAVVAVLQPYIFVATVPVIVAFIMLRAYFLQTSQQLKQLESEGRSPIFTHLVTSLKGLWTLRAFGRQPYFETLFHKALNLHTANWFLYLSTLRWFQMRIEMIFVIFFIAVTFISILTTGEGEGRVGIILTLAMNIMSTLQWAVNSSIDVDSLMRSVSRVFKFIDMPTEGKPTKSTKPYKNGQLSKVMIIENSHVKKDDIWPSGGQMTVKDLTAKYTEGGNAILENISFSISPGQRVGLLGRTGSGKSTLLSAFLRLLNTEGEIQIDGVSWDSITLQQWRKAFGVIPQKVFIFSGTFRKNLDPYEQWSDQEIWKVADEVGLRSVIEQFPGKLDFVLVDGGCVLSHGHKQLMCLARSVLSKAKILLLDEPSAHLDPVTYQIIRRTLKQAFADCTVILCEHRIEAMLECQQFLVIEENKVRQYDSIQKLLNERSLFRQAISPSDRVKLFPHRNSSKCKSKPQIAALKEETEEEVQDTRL

SMILES: CO[C@@H]1CCN(c2cccc(CN3C(=O)c4cccc(c4)S(=O)(=O)Nc4nc(cc(-c5c(C)cccc5C)n4)OC[C@H]3CC(C)(C)C)n2)C1 [Compound 624]
EC50 (Table 11): < 1000 nM | Emax [1]: > 60%

SMILES: Cc1cccc(C)c1-c1cc2nc(n1)NS(=O)(=O)c1cccc(c1)C(=O)N(Cc1ccc(C3CCOCC3)cc1F)[C@H](CC(C)(C)C)CO2 [Compound 518]
activation at 10 µM [3]: > 600%

SMILES: Cc1cccc(C)c1-c1cc2nc(n1)NS(=O)(=O)c1cccc(c1)C(=O)N(CC(=O)N(C)C1CCOCC1)[C@H](CC(C)(C)C)CO2 [Compound 182]
activation at 10 µM [3]: > 600%

SMILES: Cc1cccc(C)c1-c1cc2nc(n1)NS(=O)(=O)c1cccc(c1)C(=O)N(C[C@H]1C[C@@H](NC(=O)OC(C)C)C1)[C@H](CC(C)(C)C)CO2 [Compound 1005]
EC50 (Table 12): < 1000 nM | Emax [5]: > 60%

SMILES: Cc1cccc(C)c1-c1cc2nc(n1)NS(=O)(=O)c1cccc(c1)C(=O)N(CC(=O)N[C@H]1CC[C@H](C)CC1)[C@H](CC(C)(C)C)CO2 [Compound 194]
activation at 10 µM [3]: > 600%

SMILES: Cc1cccc(C)c1-c1cc2nc(n1)NS(=O)(=O)c1cccc(c1)C(=O)N(CC1CC3(C1)CC(NC(=O)OC1CC1)C3)[C@H](CC(C)(C)C)CO2 (stereo partly shown) [Compound 1002]
activation at 10 µM [3]: > 600%

SMILES: Cc1cccc(C)c1-c1cc2nc(n1)NS(=O)(=O)c1cccc(c1)C(=O)N(CC1CCCOC1)[C@H](CC(C)(C)C)CO2 (stereo partly shown) [Compound 819]
EC50 (Table 11): < 1000 nM

SMILES: Cc1cccc(C)c1-c1cc2nc(n1)NS(=O)(=O)c1cccc(c1)C(=O)N(CC1CCC(C)(C)O1)[C@H](CC(C)(C)C)CO2 (single isomer, unassigned) [Compound 33]
activation at 10 µM [4]: > 60%

SMILES: Cc1cccc(C)c1-c1cc2nc(n1)NS(=O)(=O)c1cccc(c1)C(=O)N(Cc1cccc(N3CCC[C@H]3C)n1)[C@H](CC1CC1)CO2 [Compound 463]
EC50 (Table 12): < 1000 nM | Emax [5]: > 60%

SMILES: Cc1cccc(C)c1-c1cc2nc(n1)NS(=O)(=O)c1cccc(c1)C(=O)N(Cc1nc(N(C)C(C)C)ccc1C(F)(F)F)[C@H](CC(C)(C)C)CO2 [Compound 458]
activation at 10 µM (Table 12, at 10 μM, read-out: HBE Activity at 10 μM (%)): > 600%

SMILES: Cc1cccc(C)c1-c1cc2nc(n1)NS(=O)(=O)c1cccc(c1)C(=O)N(Cc1ncc(N3CCCC3(C)C)cn1)[C@H](CC(C)(C)C)CO2 [Compound 537]
EC50 (Table 13): < 1000 nM | Emax [6]: > 60%

SMILES: Cc1cccc(C)c1-c1cc2nc(n1)NS(=O)(=O)c1cccc(c1)C(=O)N(CC1CC(C)(C)OC(C)(C)C1)[C@H](CC(C)(C)C)CO2 [Compound 30, (11R)-6-(2,6-Dimethylphenyl)-11-(2,2-dimethylpropyl)-12-[(2,2,6,6-tetramethyloxan-4-yl)methyl]-9-oxa-2λ^6-thia-3,5,12,19-tetraazatricyclo[12.3.1.14,8]nonadeca-1(18),4,6,8(19),14,16-hexaene-2,2,13-trione]
activation at 10 µM [4]: > 60%

SMILES: COC1CCN(c2cccc(CN3C(=O)c4cccc(c4)S(=O)(=O)Nc4nc(cc(-c5c(C)cccc5C)n4)OC[C@H]3CC(C)(C)C)n2)C1 (stereo partly shown) [Compound 625]
EC50 (Table 11): < 1000 nM | Emax [1]: > 60%

SMILES: COCCN(c1cccc(CN2C(=O)c3cccc(c3)S(=O)(=O)Nc3nc(cc(-c4c(C)cccc4C)n3)OC[C@H]2CC(C)(C)F)n1)C(C)C [Compound 1508]
activation at 10 µM (HBE assay, 10 μM, read-out: HBE Activity at 10 μM (%)): > 60%

SMILES: Cc1cccc(C)c1-c1cc2nc(n1)NS(=O)(=O)c1cccc(c1)C(=O)N(Cc1ncc(N3CC4(C3)CC(C)(C)C4)cn1)[C@H](CC(C)(C)C)CO2 [Compound 869]
EC50 (Table 13): < 1000 nM | Emax [6]: > 60%

SMILES: COC1CCN(c2cnc(CN3C(=O)c4cccc(c4)S(=O)(=O)Nc4nc(cc(-c5c(C)cccc5C)n4)OC[C@H]3CC(C)(C)C)nc2)CC1 [Compound 718]
EC50 (Table 11): < 1000 nM | Emax [1]: > 60%

SMILES: Cc1cccc(C)c1-c1cc2nc(n1)NS(=O)(=O)c1cccc(c1)C(=O)N(Cc1cccc(N3CC(=O)NC3=O)c1)[C@H](CC(C)(C)C)CO2 [Compound 148, 1-[3-[[(11R)-6-(2,6-Dimethylphenyl)-11-(2,2-dimethylpropyl)-2,2,13-trioxo-9-oxa-2λ^6-thia-3,5,12,19-tetrazatricyclo[12.3.1.14,8]nonadeca-1(18),4(19),5,7,14,16-hexaen-12-yl]methyl]phenyl]imidazolidine-2,4-dione]
EC50 (Table 10): 1000 to 3000 nM | Emax [7]: > 60%

SMILES: Cc1cccc(C)c1-c1cc2nc(n1)NS(=O)(=O)c1cccc(c1)C(=O)N(CC(=O)N1CCCC1c1ccccc1)[C@H](CC(C)(C)C)CO2 (stereo partly shown) [Compound 188]
activation at 10 µM [3]: > 600%

Next, values leading:

EC50 (HBE assay): < 1000 nM | Emax [2]: > 60%
SMILES: Cc1cccc(C)c1-c1cc2nc(n1)NS(=O)(=O)c1cccc(c1)C(=O)N(Cc1ccc(OC(F)(F)F)cn1)[C@H](CC(C)(C)C)CO2 [Compound 1412]

EC50 (HBE assay): < 1000 nM | Emax [2]: > 60%
SMILES: COCCN(CC(C)C)c1cccc(CN2C(=O)c3cccc(c3)S(=O)(=O)Nc3nc(cc(-c4c(C)cccc4C)n3)OC[C@H]2CC(C)(C)C)n1 [Compound 1372]

activation at 10 µM [4]: > 60%
SMILES: Cc1cccc(C)c1-c1cc2nc(n1)NS(=O)(=O)c1cccc(c1)C(=O)N(Cc1ccc(OCCC(C)(C)C)cn1)[C@H](CC(C)(C)C)CO2 [Compound 746]

activation at 10 µM [4]: > 60% | EC50 (Table 11): < 1000 nM | Emax [1]: > 60%
SMILES: Cc1cccc(C)c1-c1cc2nc(n1)NS(=O)(=O)c1cccc(c1)C(=O)N(Cc1cccc(C3=CCOCC3)n1)[C@H](CC(C)(C)C)CO2 [Compound 733]

EC50 (Table 11): < 1000 nM | Emax [1]: > 60%
SMILES: COc1cncc(CN2C(=O)c3cccc(c3)S(=O)(=O)Nc3nc(cc(-c4c(C)cccc4C)n3)OC[C@H]2CC(C)(C)C)n1 [Compound 884]

EC50 (Table 12): < 1000 nM | Emax [5]: > 60%
SMILES: Cc1cnc(CN2C(=O)c3cccc(c3)S(=O)(=O)Nc3nc(cc(-c4c(C)cccc4C)n3)OC[C@H]2CC(C)(C)C)nc1N(C)CC(C)(C)C [Compound 328]

Emax [7]: > 60%
SMILES: Cc1cccc(C)c1-c1cc2nc(n1)NS(=O)(=O)c1cccc(c1)C(=O)N(Cc1ccc(-c3cnoc3)cn1)[C@H](CC(C)(C)C)CO2 [Compound 291]

EC50 (Table 12): < 1000 nM | Emax [5]: > 60%
SMILES: Cc1cccc(C)c1-c1cc2nc(n1)NS(=O)(=O)c1cccc(c1)C(=O)N(Cc1ccc(C#CC(C)(C)CO)cn1)[C@H](CC(C)(C)C)CO2 [Compound 250]

activation at 10 µM (Table 10, at 10 μM, read-out: HBE activity at 10 (μM) (%)): > 60% | EC50 (Table 10): < 1000 nM | Emax [7]: > 60%
SMILES: Cc1cccc(C)c1-c1cc2nc(n1)NS(=O)(=O)c1cccc(c1)C(=O)N(Cc1ncccc1-c1cn[nH]c1)[C@H](CC(C)(C)C)CO2 [Compound 53, (11R)-6-(2,6-Dimethylphenyl)-11-(2,2-dimethylpropyl)-2,2-dioxo-12-[[3-(1H-pyrazol-4-yl)-2-pyridyl]methyl]-9-oxa-2λ^6-thia-3,5,12,19-tetrazatricyclo[12.3.1.14,8]nonadeca-1(18),4(19),5,7,14,16-hexaen-13-one]

EC50 (Table 11): 1000 to 3000 nM | Emax [1]: > 60%
SMILES: Cc1cccc(C)c1-c1cc2nc(n1)NS(=O)(=O)c1cccc(c1)C(=O)N(Cc1ncc(C3CC3)cn1)[C@H](CC(C)(C)C)CO2 [Compound 642]

EC50 (Table 12): < 1000 nM | Emax [5]: > 60%
SMILES: Cc1cccc(C)c1-c1cc2nc(n1)NS(=O)(=O)c1cccc(c1)C(=O)N(Cc1cncc(N(C)CCOC(C)C)n1)[C@H](CC(C)(C)C)CO2 [Compound 262]

EC50 (Table 11): < 1000 nM | Emax [1]: > 60%
SMILES: Cc1cccc(C)c1-c1cc2nc(n1)NS(=O)(=O)c1cccc(c1)C(=O)N(Cc1nccc(OC(C)C)n1)[C@H](CC(C)(C)C)CO2 [Compound 656]

EC50 (Table 12): < 1000 nM | Emax [5]: > 60%
SMILES: Cc1cccc(C)c1-c1cc2nc(n1)NS(=O)(=O)c1cccc(c1)C(=O)N(Cc1ccc(C3CCCCO3)cn1)[C@H](CC(C)(C)C)CO2 (stereo partly shown) [Compound 707]
